Measurements reported in patent US20220401461A1, “Pharmaceutical Composition for Protecting Cartilage” (Kyoto University, priority 2019, published 2022).
Counter-ions that a name gives are not always drawn.

How the values were obtained:
human chondrocytes = test: Viable cells (CCK-8) in monolayer human chondrocytes cultured in the presence of tunicamycin; type: cell-based; details: tunicamycin 3 μg/mL and KUS121 100 μM for 24 hours, then 0.5% FBS medium for 48 hours; FIG. 6
Protocol: Chondrocytes were collected from a knee joint removed from a patient in knee replacement surgery. The cells were cultured in DMEM-F12 (Gibco, 11330-032) on a 24-well plate to 70-80% confluence and cultured in the medium without FBS for further 24 hours. The cells were then cultured in the medium containing tunicamycin (3 μg/mL) and KUS121 (100 μM) for 24 hours. The medium was replaced with the medium containing 0.5% FBS and the cells were cultured for 48 hours. For counting viable cells, CCK-8 (DOJINDO LABORATORIES) was added, which is a kit for cell counting comprising WST8 as a chromogenic substrate. The cells were incubated for 15 minutes at 37° C. and the absorbances (450 nm, 570 nm) were determined. Viable cells were decreased by adding tunicamycin, but not decreased in the presence of KUS121.

[1] = system: Bip and CHOP in mouse chondrocytes; test: Western blotting for Bip and CHOP in mouse chondrocytes cultured in the presence of tunicamycin; type: cell-based; details: tunicamycin 3 μg/mL; KUS121 50 or 100 μM; 6 hours; FIG. 4
Protocol: (§1) Cells of mouse teratocarcinoma-derived cell line ATDCS (J Cell Biol. 1996 April; 133(2):457-68) were cultured in DMEM/Ham's F12 medium containing 5% FBS. The cells were passaged to a 12-well plate at the density of 3×10^4 cells/well and cultured in the presence of insulin (10 μg/ml) (start of differentiation induction, Day 0). The cells were differentiated into chondrocytes by differentiation induction for 14 to 21 days. The cells were used in the following experiments.
On Day 15 of the differentiation induction, tunicamycin (3 μg/mL) and KUS121 (50 or 100 μM) were added to the medium and the chondrocytes were cultured for 6 hours. The cells were subjected to Western blotting. As primary antibodies, Bip (Cell Signaling #3177S), CHOP (Proteintech #15204-1-AP), and actin (Sigma #A5441) were used. Expression of Bip and CHOP was suppressed in the presence of KUS121. Bip is an ER stress marker and CHOP induces apoptosis related to ER stress.

[2] = system: Bip, ATF4, and CHOP in human chondrocytes; test: Western blotting for Bip, ATF4 and CHOP in human chondrocytes cultured in the presence of tunicamycin; type: cell-based; details: tunicamycin 3 μg/mL; KUS121 12.5, 25, 50, or 100 μM; 8 hours; in a dose-dependent manner; FIG. 8
Protocol: Human chondrocytes were cultured to 70-80% confluence. Tunicamycin (3 μg/mL) and KUS121 (12.5, 25, 50, or 100 μM) were added to the medium and the cells were cultured for further 8 hours. Proteins were collected from the cells and subjected to Western blotting. As primary antibodies, Bip (Cell Signaling Technology, #3177), ATF4 (Cell Signaling Technology, #11815), CHOP (Cell Signaling Technology, #2895), and β-actin (Cell Signaling Technology, #5125) were used. In the absence of tunicamycin expressions of ATF4 and CHOP were observed, but the expression levels were quite low. In the presence of tunicamycin KUS121 suppressed expression of Bip, ATF4, and CHOP in a dose-dependent manner.

[3] = system: traumatic cartilage damage model rats; test: Traumatic cartilage damage model (periodic compression to knee joints) in rats; type: in vivo; details: rat, KUS121 20 mg/ml, 100 μl intraarticularly; for Modified Mankin score of posterolateral femoral condyle: versus control group, FIG. 15
Source text: It is known that a mouse that has been given periodic compression to a knee joint can be used as a model of post-traumatic cartilage damage (Wu P, Sandell L, et al. Arthritis Rheumatol. 2014; 66(5):1256-65). In a similar manner, a rat post-traumatic cartilage damage model was generated. Specifically, a knee of a hind limb was deeply flexed and fixed on the table of Autograph (Shimadzu Corporation) with the patella facing down. A vertical load of 5 N was applied downward from the heel, then 240 loads of 20 N at the maximum were applied with 5-second intervals. […] This model was used for the following experiments.
Knee joints of 12-week old male Wister rats (five rats per group) were given periodic compression by the method described above. KUS121 (20 mg/ml) in 5% glucose solution (100 μl) was intraarticularly administered to rats in KUS 121 group immediately before the operation and at Day 1, 2, and 3 after the operation. To rats in the control group 5% glucose solution (100 μl) was administered. The rats were sacrificed two or four weeks after the operation. Damages of posterolateral femoral condyle were histologically evaluated.

[4] = system: caspase 3/7 activity of human chondrocytes; test: Caspase 3/7 activity (Casp3/7 Glo assay) of human chondrocytes cultured in the presence of tunicamycin; type: cell-based; details: tunicamycin 3 μg/mL; KUS121 100 μM; 6 hours; FIG. 7
Protocol: Human chondrocytes were cultured to 70-80% confluence. Tunicamycin (3 μg/mL) and KUS121 (100 μM) were added to the medium and the cells were cultured for further 6 hours. Casp3/7 Glo assay (Promega) was used in accordance with the manufacture's instructions and caspase 3/7 activity was determined by luminometer. The caspase activity was increased by adding tunicamycin, but not increased in the presence of KUS121.

mouse chondrocytes [5] = test: TNFα stress: relative number of viable cells (WST8) in mouse chondrocytes; type: cell-based; details: chondrocytes differentiated from ATDCS cells; TNFα 10 ng/mL; KUS121 50 or 100 μM; 48 hours; FIG. 3
Protocol: as §1
On Day 15 of the differentiation induction, TNFα (10 ng/mL), which induces apoptosis, and KUS121 (50 or 100 μM) were added to the medium and the chondrocytes were cultured for 48 hours. Relative number of viable cells was determined by using WST8.

[6] = system: human femorotibial joint cartilage; test: Organ culture of human cartilage: number of viable cells (CCK-8); type: cell-based; details: cartilage of posterolateral femoral condyle; KUS121 100 μM; 72 hours; FIG. 11
Protocol: From a knee joint removed from a patient in knee replacement surgery cartilage of femorotibial joint (posterolateral femoral condyle) was collected by using a biopsy punch having a diameter of 7 mm. The cartilage was cultured in the medium without FBS for 48 hours and then in the medium containing KUS121 (100 μM) for 72 hours. Number of viable cells was determined by washing the cartilage with PBS, adding CCK-8, incubating the cartilage for 30 minutes at 37° C., and determining the absorbances (450 nm, 570 nm). Number of viable cells was larger in the presence of KUS121.

[7] = system: MMP13 and MMP1 in human chondrocytes; test: Gene expression of MMP13 and MMP1 by real-time PCR in human chondrocytes cultured in the presence of IL-1β; type: cell-based; details: IL-1β 2 ng/mL; KUS121 12.5, 25, 50, or 100 μM; 24 hours; in a dose-dependent manner; FIG. 10
Protocol: Human chondrocytes were cultured on a 24-well plate to 70-80% confluence and cultured in the medium without FBS for 24 hours. The cells were then cultured in the medium containing IL-1β (2 ng/mL) and KUS121 (12.5, 25, 50, or 100 μM) for 24 hours. Messenger RNAs were extracted from the cells and cDNAs were generated by reverse transcription. Gene expression levels of MMP13 and MMP1 were determined by real-time PCR. KUS121 suppressed expression of MMP13 and MMP1, which are collagenases, in a dose-dependent manner.

[8] = system: Knee osteoarthritis model rats; test: Knee osteoarthritis model (monoiodoacetate, MIA) in rats; type: in vivo; details: rat, 50 mg/Kg/day intraperitoneally, two weeks after MIA administration
Protocol: It is known that intraarticularly administered monoiodoacetate (MIA) damages chondrocytes and suppresses secretin of collagen and proteoglycan to induce osteoarthritis (M. Udo et al., Osteoarthritis Cartilage. 2016, 24:1284-91). Knee osteoarthritis model rats were generated by administering 0.5 mg of monoiodoacetate (MIA) in 25 μl of saline solution into knee joint cavities of both hind limbs of healthy rats. Prior to the MIA administration, 50 mg/Kg/day of KUS121 was administered intraperitoneally for four days. After the MIA administration, the same amount of KUS121 was administered intraperitoneally five days per week.
Two weeks after the MIA administration the knee cartilages of the rats were resected, fixed with 10% neutral buffered formalin for about one week, demineralized with Morse's solution (for two weeks) or EDTA (for one month), cleaved along the medial collateral ligament, and embedded in paraffin with the cut surface facing up. Sections were cut every 100-200 μm with a thickness of 3-6 μm. The sections were stained with Safranin-O, which stains chondrocytes, and observed with a fluorescence microscope (KEYENCE BZ9000). […] In addition, three blinded evaluators evaluated ORSI scores for medial femur, lateral femur, medial tibia, and lateral tibia on the basis of the results of the Safranin-O staining. […]

[9] = system: p-JNK in human chondrocytes; test: Western blotting for p-JNK and JNK in human chondrocytes cultured in the presence of tunicamycin; type: cell-based; details: tunicamycin 3 μg/mL; KUS121 12.5, 25, 50, or 100 μM; 8 hours; in a dose-dependent manner; FIG. 9
Protocol: Human chondrocytes were cultured to 70-80% confluence. Tunicamycin (3 μg/mL) and KUS121 (12.5, 25, 50, or 100 μM) were added to the medium and the cells were cultured for further 8 hours. Proteins were collected from the cells and subjected to Western blotting. As primary antibodies, p-JNK (Cell Signaling Technology, #4668), JNK (Cell Signaling Technology, #9252), and β-actin (Cell Signaling Technology, #5125) were used. KUS121 suppressed expression of phosphorylated JNK (p-JNK), a MAP kinase, in a dose-dependent manner.

mouse chondrocytes [10] = test: Glucose starvation stress: relative number of viable cells (WST8) in mouse chondrocytes; type: cell-based; details: chondrocytes differentiated from ATDCS cells; medium containing no glucose; 100 μM KUS121; five days; FIG. 2
Protocol: as §1
The chondrocytes were cultured in the medium containing no glucose and containing KUS 121 (50 or 100 μM) for five days from Day 17 of the differentiation induction. Relative number of viable cells was determined by using WST8.

[11] = system: cCasp3 in mouse chondrocytes; test: Western blotting for cCasp3 in mouse chondrocytes cultured in the presence of TNFα; type: cell-based; details: TNFα 20 ng/mL; KUS121 50 or 100 μM; 48 hours; cCasp3 antibody; FIG. 5
Protocol: as §1
On Day 15 of the differentiation induction, TNFα (20 ng/mL) and KUS121 (50 or 100 μM) were added to the medium and the chondrocytes were cultured for 48 hours. The cells were subjected to Western blotting. As primary antibodies, cCasp3 (Cell Signaling #9661S) and actin (Sigma #A5441) were used. Expression of Casp3, an apoptosis marker, was suppressed in the presence of KUS121.

mouse chondrocytes [12] = test: Tm stress: relative number of viable cells (WST8) in mouse chondrocytes cultured in the presence of tunicamycin; type: cell-based; details: chondrocytes differentiated from ATDCS cells; tunicamycin 0.2 μg/mL; KUS121 50 or 100 μM; 40 hours; FIG. 1
Protocol: as §1
On Day 15 of the differentiation induction, tunicamycin (0.2 μg/mL), which induces ER stress, and KUS121 (50 or 100 μM) were added to the medium and the chondrocytes were cultured for 40 hours. Relative number of viable cells was determined by using 2-(2-methoxy-4-nitrophenyl)-3-(4-nitrophenyl)-5-(2,4-disulfophenyl)-2H-tetrazolium monosodium salt (WST8).

SMILES: Cc1cc(F)ccc1-c1ccc(/N=N/c2cc(S(=O)(=O)O)c3ccccc3c2N)cn1 [KUS121, 4-amino-3-[6-(4-fluoro-2-methylphenyl)pyridine-3-ylazo]naphthalene-1-sulfonic acid sodium salt]
- Viable cells (CCK-8) (human chondrocytes): not decreased
- Expression of Bip (ER stress marker), Western blotting [1]: suppressed
- Expression of CHOP, Western blotting [1]: suppressed
- Expression of ATF4, Western blotting [2]: suppressed
- Expression of Bip, Western blotting [2]: suppressed
- Expression of CHOP, Western blotting [2]: suppressed
- Volume of cartilage damage in posterolateral femoral condyle ([3]; four weeks after the operation, FIG. 16): significantly reduced
- Number of chondrocytes in posterolateral femoral condyle ([3]; four weeks after the operation, FIG. 17): significantly higher
- Modified Mankin score of posterolateral femoral condyle ([3]; four weeks after the operation): no significant difference
- Modified Mankin score of posterolateral femoral condyle ([3]; two weeks after the operation): significantly lower
- Caspase 3/7 activity [4]: not increased
- Cell death (relative number of viable cells, WST8) (mouse chondrocytes [5]): significantly suppressed
- Number of viable cells (CCK-8) [6]: larger
- Gene expression of MMP1, real-time PCR [7]: suppressed
- Gene expression of MMP13, real-time PCR [7]: suppressed
- Safranin-O staining of knee cartilage sections (indicates chondrocytes) ([8]; versus control group (PBS), FIG. 12, 13): darker
- ORSI score (mean of medial femur, lateral femur, medial tibia, lateral tibia) ([8]; versus control group, FIG. 14): lower
- Expression of phosphorylated JNK (p-JNK), Western blotting [9]: suppressed
- Cell death (relative number of viable cells, WST8) (mouse chondrocytes [10]): significantly suppressed
- Expression of Casp3, an apoptosis marker, Western blotting [11]: suppressed
- Cell death (relative number of viable cells, WST8) (mouse chondrocytes [12]): significantly suppressed
